Results on 1 molecule are retold here after paper PMC8588310, “Identification and Preliminary Structure-Activity Relationship Studies of 1,5-Dihydrobenzo[e][1,4]oxazepin-2(3H)-ones That Induce Differentiation of Acute Myeloid Leukemia Cells In Vitro” (Molecules, 2021).

Some results are limits rather than exact numbers.

The subject of one data set is HL-60 cells. Kind of data set: CD11b expression assay by flow cytometry in HL-60 cells. It counts as cell-based, human.
Data set [1] can be described thus: Metabolic stability in mouse S9 fraction. Format: in vitro ADME. The note with it: ER = Clint/species flow rate (mice: 90 mL/min/kg).
Data set [2] in a line: Semi-thermodynamic aqueous solubility. The settings on record: aqueous (buffer or water not specified), thermodynamic from solid. Format: physicochemical. The procedure: (§1) Determination of semi-thermodynamic solubility, metabolic stability in S9 fraction, Caco-2 permeability and PPB were performed by Cyprotex Ltd. (www.cyprotex.com, accessed on 22 October 2021) using their standard assays and as described on their website.

A short description of the next data set: Caco-2 permeability. Format: in vitro ADME. The note with it: human. The procedure:
as §1

Another data set in a line: Plasma protein binding. It counts as in vitro ADME. The note with it: % unbound, read-out: PPB, unbound. The procedure: as §1
A short description of data set [3]: Single dose PK study in male CD-1 mice. It counts as in vivo, mouse. The text has this:
In order to undertake a preliminary assessment of the pharmacokinetic (PK) profile of this compound class, three compounds were deemed to have sufficient intrinsic potency, solubility and in vitro metabolic stability properties to progress into a single dose in vivo PK study. […] […] […] Nonetheless, the clearance of the three compounds was high to moderate, and at this dose the in vitro EC50 was not reached.
Male CD-1 mice were used for the PK studies, with three for each treatment. […] Blood concentration was measured by LC-MS/MS over 24 h.

Another data set has as its target T1, porcine neuronal tubulin (Sus scrofa, UniProt P02550+P02554).
T1 construct: performed using porcine neuronal tubulin (Cytoskeleton, Inc, Denver, CO, USA, BK006P); purchased Cytoskeleton, Inc BK006P; host or cells: porcine brain (neuronal) tissue
Kind of data set: Microtubule (tubulin) polymerisation cell-free assay. It counts as biochemical. The note with it: read-out: IC50, inhibition of tubulin polymerisation. How it is done:
The microtubule polymerisation assay was performed using porcine neuronal tubulin (Cytoskeleton, Inc, Denver, CO, USA, BK006P) as an adaptation of the original method of Shelanski et al. and Lee et al. at Cytoskeleton, Inc.

The target in another data set is DHODH (Homo sapiens, UniProt Q02127). Kind of data set: Test against DHODH. It counts as biochemical. The note with it: testing concentrations from 1 to 10 μM.
DHODH, sequence (Q02127 whole entry, species assumed): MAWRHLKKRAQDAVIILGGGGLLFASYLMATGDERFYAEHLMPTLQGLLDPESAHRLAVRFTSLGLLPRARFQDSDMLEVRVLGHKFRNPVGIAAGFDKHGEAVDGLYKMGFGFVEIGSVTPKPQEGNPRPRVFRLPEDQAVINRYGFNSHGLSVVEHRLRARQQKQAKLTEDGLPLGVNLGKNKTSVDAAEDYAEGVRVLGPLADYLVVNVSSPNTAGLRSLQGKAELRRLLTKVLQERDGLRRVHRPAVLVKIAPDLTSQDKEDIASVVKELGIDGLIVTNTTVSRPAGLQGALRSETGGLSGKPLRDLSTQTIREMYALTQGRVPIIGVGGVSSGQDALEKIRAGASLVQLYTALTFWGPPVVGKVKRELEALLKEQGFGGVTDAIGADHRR
The target in the next data set is T2, FLT3 (Homo sapiens, UniProt P36888).
T2 sequence (P36888 27-993): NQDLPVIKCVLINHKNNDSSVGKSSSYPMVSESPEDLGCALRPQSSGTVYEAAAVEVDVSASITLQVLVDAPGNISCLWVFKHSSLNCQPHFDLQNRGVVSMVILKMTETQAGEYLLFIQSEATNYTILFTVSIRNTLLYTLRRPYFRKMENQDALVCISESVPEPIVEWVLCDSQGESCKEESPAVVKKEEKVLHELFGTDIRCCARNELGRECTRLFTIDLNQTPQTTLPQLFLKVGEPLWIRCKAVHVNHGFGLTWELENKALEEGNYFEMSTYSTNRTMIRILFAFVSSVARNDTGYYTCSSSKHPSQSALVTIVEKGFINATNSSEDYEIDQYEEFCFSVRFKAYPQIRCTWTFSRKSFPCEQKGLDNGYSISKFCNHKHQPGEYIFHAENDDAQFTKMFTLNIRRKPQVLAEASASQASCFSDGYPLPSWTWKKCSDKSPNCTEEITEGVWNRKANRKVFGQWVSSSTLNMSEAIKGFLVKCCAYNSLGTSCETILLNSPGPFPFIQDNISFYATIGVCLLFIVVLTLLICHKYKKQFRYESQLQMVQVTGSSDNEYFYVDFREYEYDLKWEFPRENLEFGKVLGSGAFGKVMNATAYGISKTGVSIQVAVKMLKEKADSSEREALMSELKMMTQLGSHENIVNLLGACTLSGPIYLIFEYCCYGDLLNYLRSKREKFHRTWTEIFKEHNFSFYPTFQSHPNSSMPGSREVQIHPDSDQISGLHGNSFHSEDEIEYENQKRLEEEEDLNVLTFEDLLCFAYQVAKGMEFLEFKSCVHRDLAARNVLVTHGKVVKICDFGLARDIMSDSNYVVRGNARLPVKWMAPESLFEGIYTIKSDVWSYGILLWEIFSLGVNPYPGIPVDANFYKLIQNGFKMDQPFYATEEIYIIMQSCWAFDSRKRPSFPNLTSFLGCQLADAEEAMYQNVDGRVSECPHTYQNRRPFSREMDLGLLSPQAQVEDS
Kind of data set: Test against FLT3. The note with it: testing concentrations from 1 to 10 μM. It counts as biochemical.

The test system of a further data set is panel of kinases. Kind of data set: Test against a panel of kinases. The note with it: testing concentrations from 1 to 10 μM. Format: biochemical.
[4] abbreviates: mouse, whole blood, single dose 3 mg/kg po, blood.

T1 sequence (P02550 whole entry): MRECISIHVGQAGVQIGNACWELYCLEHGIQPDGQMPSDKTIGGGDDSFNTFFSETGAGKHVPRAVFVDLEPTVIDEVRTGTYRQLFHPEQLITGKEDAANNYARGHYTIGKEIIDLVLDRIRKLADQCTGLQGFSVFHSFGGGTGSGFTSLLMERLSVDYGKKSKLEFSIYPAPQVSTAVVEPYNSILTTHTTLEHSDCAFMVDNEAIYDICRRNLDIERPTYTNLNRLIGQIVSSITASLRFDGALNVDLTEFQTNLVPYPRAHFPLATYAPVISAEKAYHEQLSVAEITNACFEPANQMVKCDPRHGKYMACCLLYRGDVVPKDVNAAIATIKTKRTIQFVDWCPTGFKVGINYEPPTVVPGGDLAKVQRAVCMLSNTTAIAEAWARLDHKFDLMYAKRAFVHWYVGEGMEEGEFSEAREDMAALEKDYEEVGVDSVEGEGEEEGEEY
T1 sequence (P02554 whole entry): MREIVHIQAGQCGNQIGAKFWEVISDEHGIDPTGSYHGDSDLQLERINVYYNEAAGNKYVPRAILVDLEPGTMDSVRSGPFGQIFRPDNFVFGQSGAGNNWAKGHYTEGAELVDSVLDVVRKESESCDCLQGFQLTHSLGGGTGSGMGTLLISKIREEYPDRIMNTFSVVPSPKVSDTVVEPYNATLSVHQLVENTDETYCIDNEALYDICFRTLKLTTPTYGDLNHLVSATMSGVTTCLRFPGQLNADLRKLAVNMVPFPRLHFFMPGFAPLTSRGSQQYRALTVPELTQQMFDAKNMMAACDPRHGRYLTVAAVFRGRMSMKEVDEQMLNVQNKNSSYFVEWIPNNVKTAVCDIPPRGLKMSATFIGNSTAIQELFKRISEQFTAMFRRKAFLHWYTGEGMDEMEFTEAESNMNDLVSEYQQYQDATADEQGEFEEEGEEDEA

One may read the EC50 as the concentration at which the effect is half-maximal. As a reminder, the solubility (thermodynamic) is solubility found after equilibrating the solid with the medium. Broadly, the Papp is a coefficient for how fast a substance crosses the barrier. Usually bioavailability stands for dose-corrected exposure relative to a reference, in per cent. A low value points to little systemic uptake. One may read the half-life as the time needed for the level to fall by half in the phase considered. A word on the Cmax: it is the highest concentration seen after dosing. By Tmax is commonly meant the time at which the peak concentration occurs. A word on the IC50: it is the point on the concentration scale where inhibition reaches its midpoint. With `CC(C)N1C(=O)COCc2ccc(-c3cccc(NS(C)(=O)=O)c3)cc21` [OXS007002, N-(3-(1-Isopropyl-2-oxo-1,2,3,5-tetrahydrobenzo[e][1,4]oxazepin-8-yl)phenyl)methanesulfonamide], the EC50 in the data set on HL-60 cells (Homo sapiens, HL-60, 96 h, HL-60 cells, 4-day (96 h) treatment, CD11b upregulation, read-out: EC50 [nM], %CD11b response in HL60 cells) was determined as 620 nM. The “LipE (lipophilic efficiency)” value with HL-60 cells (LipE = -LogEC50-cLogP, EC50 of CD11b assay in HL-60) is 4.5. Besides, in data set [1], the “ER in mS9 (extraction ratio)” value came to 0.33. This molecule also showed a solubility (thermodynamic) in data set [2] of more than 200 µM. The efflux ratio in “Caco-2 permeability” (Caco-2, read-out: EfR, efflux ratio (Caco-2)) is 1.3. The Papp in the data set “Caco-2 permeability” (Caco-2 cell permeability) was found to be 31 ×10⁻⁶ cm/s. Further, in “Plasma protein binding”, the fraction unbound came out at 0.11. Moreover, the bioavailability in data set [3] (mouse, whole blood, 3 mg/kg po vs 0.33 mg/kg iv) amounted to 28%. The same molecule showed a half-life in data set [3] (mouse, whole blood, single dose 3 mg/kg po and 0.33 mg/kg iv, blood, route of parameter not given) of 4.9 h. Besides, in [3] (setting [4]), the Cmax amounted to 104 ng/mL and the Tmax worked out at 0.42 h. Also, the Vd/F in data set [3] (mouse, whole blood, single dose 3 mg/kg po, blood, read-out: Vz/F) is 101 L/kg. This molecule had a Clobs in data set [3] (single dose 0.33 mg/kg iv, blood) of 73 mL/min/kg. Further, the Clobs/F in data set [3] (single dose 3 mg/kg po, blood) came out at 258 mL/min/kg. Also, the IC50 at porcine neuronal tubulin amounted to 3600 nM. Further, the “Activity against DHODH” value at DHODH was “inactive”. For the same molecule, the “Activity against FLT3” value on FLT3 was “inactive”. The “Activity against a panel of kinases” value with panel of kinases was “inactive”.
